From patent US9084782B2, “Chemical inhibitors of cholesterol biosynthesis and venous angiogenesis” (The Regents of the University of California, priority 2011, dated 2015) come the findings set out here.

For test [1], the system named is Tg(kdrl:GFP) zebrafish embryos. As to the kind of experiment: Caudal vein plexus (CVP) formation / venous angiogenesis in Tg(kdrl:GFP) zebrafish embryos. Particulars: for anti-angiogenetic activity of aplexone analogs (inhibition of CVP formation / venous angiogenesis): SAR study, compared with aplexone; for ranking in the angiogenesis test: compounds of FIG. 11. In kind it is in vivo. The text has this:
Images of GFP expression in Tg(kdrl:GFP) embryos were acquired using a Zeiss SV-11 epifluorescence microscope. Confocal images were acquired using a Carl Zeiss Laser Scanning Systems LSM510 equipped with 20× air, 20× water or 40× water immersion objectives. For single time point confocal images, embryos were anesthetized with 0.01% tricaine and embedded in 1% agarose. When capturing time-lapse confocal movies, embryos were mounted in 3.5% methylcellulose (Sigma-Aldrich) and imaged for 5 hrs on a heated stage at 28.5° C. The images obtained were analyzed using the Zeiss LSM Image Brower version 4 and Image J.
A synthetic chemical library containing 168 compounds (Castellano et al., 2007) and 300 chemicals from Biomol International LP, consisting of 72 ion channel inhibitors (Cat No. 2805), 84 kinase/phosphatase inhibitors (Cat No. 2831), 84 orphan ligands (Cat No. 2825), and 60 endocannabinoids (Cat No. 2801) were screened. The synthetic small molecules were prepared through nucleophilic phosphine catalysis of allenoates (Zhu et al., 2003). Four Tg(kdrl:GFP) embryos were placed into each well of 96-well plates containing a 10 μM solution of each chemical compound dissolved in embryo buffer with 0.1% DMSO. The embryos were raised at 28.5° C. and examined for defects in blood vessel development at 1 and 2 days after treatment. Standard parameters such as numbers of somites and head to body angle were used to determine the stages of zebrafish embryos (Kimmel et al., 1995).
Aplexone treatment described in this study was carried out at a concentration of 10 μM starting at 10 hpf unless otherwise specified.
8 ng tnnt2 MO (Gene Tools) (Sehnert et al., 2002), 3 nl of 4 mM GGTI-2133 (Calbiochem), 3 nl of 5 mM L744,832 (Calbiochem) and 1 nl of 2M mevalonate (Sigma-Aldrich) were injected into 1-2 cell stage embryos.
The library of 168 compounds^24 prepared through the nucleophilic phosphine catalysis of allenes were screened using Tg(kdrl:GFP) zebrafish. Four embryos were placed in each well of 96-well plates containing a 10 uM solution of each chemical compound dissolved in embryo buffer with 0.1% DMSO. The embryos were raised at 28.5° C. and defects in blood vessel development were examined at 1 and 2 days after fertilization.

In a further test the test system is HMGCR pathway. As to the kind of experiment: Cholesterol assay in embryo lysate (Amplex Red). Type of test: in vivo, zebrafish. The note with it: relative to 0.4% DMSO control. The method, then:
The yolk was removed from embryos by vortexing in calcium-free Ringer's solution with 1 mM EDTA at 4° C. The embryos were then pelleted and washed with fresh calcium free Ringer's solution 5 times before being resuspended in cholesterol assay reaction buffer and were then lysed by sonication using a Sonifier 450 (Branson). Cholesterol levels in the embryo lysate were measured with an Amplex Red Cholesterol Assay Kit (Invitrogen) and Flex station II (Bucher Biotec). The total protein concentration of the embryo lysate was measured using a DC protein assay (Bio-Rad Laboratories) and SpectraMax plus (Molecular Devices).

Regarding `CC(=O)C1=CCC(c2ccccc2)N(Cc2ccccc2)C1` (stereo not shown) [Compound 12], the “anti-angiogenetic activity of aplexone analogs (inhibition of CVP formation / venous angiogenesis)” value in test [1] was “failed to inhibit the formation of CVP”. As for `C=CCCC(=O)C1=CCC(c2ccccc2)N(S(=O)(=O)c2ccc(C)cc2)C1` (stereo not shown) [Compound 8], the “anti-angiogenetic activity of aplexone analogs (inhibition of CVP formation / venous angiogenesis)” value in test [1] is listed as “showed the bioactivity of aplexone albeit to a lesser extent”. On to `c1ccc2c(-c3ccncc3)c[nH]c2c1` [Rockout, reference compound], for which the CVP formation entry in test [1] (50 μM Rockout, 48 hpf) was “recapitulated the caudal vein phenotype of aplexone treatment”. For the molecule `CC(=O)C1=CCC(c2ccccc2)N(S(=O)(=O)c2ccccc2)C1` (stereo not shown) [Compound 17], the “anti-angiogenetic activity of aplexone analogs (inhibition of CVP formation / venous angiogenesis)” value in test [1] is on record as “showed inhibitory activity for venous angiogenesis”. Still for that read-out and setting: then `CC(=O)C1=CCC(c2ccccc2)N(S(=O)(=O)c2ccc(Cl)cc2)C1` (stereo not shown) [Compound 20], with “showed inhibitory activity for venous angiogenesis”; and `CC(=O)C1=CCC(c2ccc(C)o2)N(S(=O)(=O)c2ccc(C)cc2)C1` (stereo not shown) [Compound 35], with “inactive”; and `CC(=O)C1=CCC(c2ccccc2)N(S(=O)(=O)c2cccc(C)c2)C1` (stereo not shown) [Compound 19], with “without showing much decrease in the activity”.

Consider `CC(=O)C1=CCCN(S(=O)(=O)c2ccc(C)cc2)C1` [Compound 16], for which, in test [1], the “anti-angiogenetic activity of aplexone analogs (inhibition of CVP formation / venous angiogenesis)” value is on record as “developed a single-lumen caudal vein like aplexone, albeit in lower efficiency”. The same measure, in the same setting: next, `CC(=O)C1=CCC(c2cccc3ccccc23)N(S(=O)(=O)c2ccc(C)cc2)C1` (stereo not shown) [Compound 37]: “inactive”; `CC(=O)C1=CCC(c2cccn2C)N(S(=O)(=O)c2ccc(C)cc2)C1` (stereo not shown) [Compound 36]: “inactive”. As to `CC(C)c1c(C(=O)Nc2ccccc2)c(-c2ccccc2)c(-c2ccc(F)cc2)n1CC[C@@H](O)C[C@@H](O)CC(=O)O` [atorvastatin, reference compound], the “CVP formation at suboptimal level” value in test [1] (2 μM single agent) is on record as “normal CVP”. In addition, the CVP formation result in test [1] (atorvastatin-treated embryos, from 10 hpf, imaged at 48 hpf) was “phenotypes similar to those observed in embryos exposed to aplexone”. The embryonic cholesterol levels entry in the test on HMGCR pathway is “reduce cholesterol level significantly”.

In the case of `Cc1ccc(S(=O)(=O)N2CC(C(C)O)=CC[C@@H]2c2ccccc2)cc1` (stereo partly shown) [Compound 6], in test [1], the “anti-angiogenetic activity of aplexone analogs (inhibition of CVP formation / venous angiogenesis)” value is listed as “did not inhibit the CVP formation”. Regarding `CC(=O)C1=CCC(c2ccccc2)N(S(C)(=O)=O)C1` (stereo not shown) [Compound 13], the “anti-angiogenetic activity of aplexone analogs (inhibition of CVP formation / venous angiogenesis)” value is on record as “failed to inhibit the formation of CVP” in test [1] and “normal venous angiogenesis” in test [1] (listed as AP13). Also, the embryonic cholesterol levels result in the test on HMGCR pathway is on record as “normal cholesterol levels”. Consider `CC(=O)C1=CCC(c2ccc(Cl)c(Cl)c2)N(S(=O)(=O)c2ccc(C)cc2)C1` (stereo not shown) [Compound 31], for which, in test [1], the “anti-angiogenetic activity of aplexone analogs (inhibition of CVP formation / venous angiogenesis)” value is recorded as “not active”.

As to `CC(=O)C1=CCC(c2ccc(F)cc2)N(S(=O)(=O)c2ccc(C)cc2)C1` (stereo not shown) [Compound 24], the “anti-angiogenetic activity of aplexone analogs (inhibition of CVP formation / venous angiogenesis)” value in test [1] is on record as “abolished the biological activity”. For `CC(=O)C1=CCC(c2ccc(Cl)cc2)N(S(=O)(=O)c2ccc(C)cc2)C1` (stereo not shown) [Compound 25], the “anti-angiogenetic activity of aplexone analogs (inhibition of CVP formation / venous angiogenesis)” value in test [1] is given as “diminished the antiangiogenic activity”. Consider `CC(=O)C1=CCC(c2ccc(C)cc2)N(S(=O)(=O)c2ccc(C)cc2)C1` (stereo not shown) [Compound 26], for which, in test [1], the “anti-angiogenetic activity of aplexone analogs (inhibition of CVP formation / venous angiogenesis)” value is reported as “active” and the “ranking in the angiogenesis test” value was “most active”. On the same counts, the results for `CC(=O)C1=CCC(c2cccs2)N(S(=O)(=O)c2ccc(C)cc2)C1` (stereo not shown) [Compound 33] are “active” and “most active”. On to `CC(C)C[C@H](NC(=O)c1ccc(NCc2cnc[nH]2)cc1-c1cccc2ccccc12)C(=O)O` [GGTI-2133, reference compound], for which the CVP formation result in test [1] (3 nl of 4 mM GGTI-2133 injected at 1-2 cell stage, 48 hpf) is “CVP phenotypes reminiscent of aplexone treatment”.

Turning to `CC[C@H](C)[C@@H](CO[C@@H](Cc1ccccc1)C(=O)N[C@@H](CCS(C)(=O)=O)C(=O)OC(C)C)NC[C@@H](N)CS` [L744,832, reference compound], in test [1] (3 nl of 5 mM L744,832 injected at 1-2 cell stage, 48 hpf), the CVP formation result is “does not affect the formation of the CVP”.

As for `CC(=O)C1=CCC(c2ccc3c(c2)OCO3)N(S(=O)(=O)c2ccc(C)cc2)C1` (stereo not shown) [Compound 32], the “anti-angiogenetic activity of aplexone analogs (inhibition of CVP formation / venous angiogenesis)” value in test [1] is reported as “not active”. On to `CC(O)(CCO)CC(=O)O` (stereo not shown) [mevalonate, reference compound], for which the “effect on aplexone's inhibition of CVP formation” value in test [1] (1 nl of 2M mevalonate injected, 5 μM aplexone from 2 hpf) is given as “blocks the inhibitory effects of aplexone”.

Take `CC(=O)C1=CCC(c2ccccc2)N(S(=O)(=O)c2ccccc2C)C1` (stereo not shown) [Compound 18]: the “anti-angiogenetic activity of aplexone analogs (inhibition of CVP formation / venous angiogenesis)” value in test [1] is “without showing much decrease in the activity”. The same measure, in the same setting: then `CC(=O)C1=CCC(c2ccco2)N(S(=O)(=O)c2ccc(C)cc2)C1` (stereo not shown) [Compound 34], with “inactive”; and `CC(=O)C1=CCC(c2ccccc2)NC1` (stereo not shown) [Compound 11], with “failed to inhibit the formation of CVP”.
